Structures can show the parent of a compound that is named as a salt.
Test system: Desulfovibrio desulfuricans G100A
Assay: microbe, parasite or virus in culture
Type: cell-based
Conditions: not given

With `CC(C)NC(=N)NC(=N)Nc1cccc2c1C(=O)c1ccccc1C2=O` [N-[1-(9,10-dihydro-9,10-dioxo)anthracenyl]-N'-(1-methylethyl)imidodicarbonimidic diamide hydrochloride] the “inhibition of sulfide production (in words)” value was “inhibited sulfide formation”.

Same assay, conditions: 10 ppm

Going from “1,1'-Iminobis[4-amino]9,10-anthracenedione, sulfonated [Acid black 48]” to “1-Amino-4[4-[[4-chloro-6-[2,3 or 4-sulfophenyl]-amino]-1,3,5-triazin-2-yl]amino]-3-sulfophenyl]-amino]-9,10-dihyro-9,10-dioxo-2-anthracenesulfonic acid [Reactive blue 2]”, the “% Inhib. (inhibition of sulfide production)” value rises from 13.8% to 17.5%.

Same assay, conditions: Desulfovibrio desulfuricans, G100A, read-out: % Inhib. (inhibition of sulfide production)

First: O=C1c2ccc(S(=O)(=O)O)cc2C(=O)c2ccc(S(=O)(=O)O)cc21 [Anthraquinone-2,6-disulfonic acid di Na salt]
Second: O=C1c2ccccc2C(=O)c2cc(S(=O)(=O)O)ccc21 [Anthraquinone-2-sulfonic acid sodium salt monohydrate]
The inhibition at 10 ppm of the first is lower: 9.8% for the first, 17% for the second.

Going from `O=c1c2ccccc2c(=O)c2c1cc(Cl)c1[nH]c3c([nH]c12)c(Cl)cc1c(=O)c2ccccc2c(=O)c13` [7,16-Dichloroindanthrone, 7,16-Dichloro-6,15-dihydro-5,9,14,18-anthrazinetetrone] to `Nc1c(S(=O)(=O)O)cc(Nc2ccccc2)c2c1C(=O)c1ccccc1C2=O` [Acid blue 25, 1-Amino-9,10-dihydro-9,10-dioxo-4-(phenylamino)-2-anthracenesulfonic acid, Na salt], the inhibition at 10 ppm falls from 43.8% to 26%.

Compared with `Cc1cc(C)c(S(=O)(=O)O)c(C)c1Nc1ccc(Nc2c(C)cc(C)c(S(=O)(=O)O)c2C)c2c1C(=O)c1ccccc1C2=O` [Acid blue 80, 3,3'-[(9,10-Dihydro-9,10-dioxo-1,4-anthracenediyl)adiimino]bis[2,4,6-trimethylbenzenesulfonicacid], di Na salt], `Cc1ccc(Nc2cccc3c2C(=O)c2cccc(Nc4ccc(C)cc4S(=O)(=O)O)c2C3=O)c(S(=O)(=O)O)c1` [Alizarin violet 3R, 2,2'-[(9,10-Dihydro-9,10-dioxo-1,5-anthracenediyl)-diimino]bis[5-methylbenzenesulfonic acid], di Na salt] is higher in inhibition at 10 ppm: 0% for the first, 30.9% for the second.

Compared with `O=C1c2ccccc2C(=O)c2c(Nc3ccc(S(=O)(=O)O)cc3)c(Nc3ccc(S(=O)(=O)O)cc3)cc(O)c21` [Alizarin blue black B, 1,2-Bis[(4-sulfophenyl)amino]-4-hydroxy-anthraquinone], `Cc1ccc(S(=O)(=O)Nc2cc(S(=O)(=O)O)c(N)c3c2C(=O)c2ccccc2C3=O)cc1` [1-Amino-9,10-dihydro-4[[(4-methylphenyl)sulfonyl]-amino]-9,10-dioxo-2-anthracenesulfonic acid, Na salt] is lower in inhibition at 10 ppm: 17.5% for the first, 3.9% for the second.

First: O=C1c2c(Br)cc(Br)c(O)c2C(=O)c2c(O)c(Br)cc(Br)c21 [2,4,5,7-Tetrabromochrysazin, 2,4,5,7-Tetrabromo-1,8-dihydroxy-9,10-anthracenedione]
Second: Cc1cc(O)c2c(c1O)C(=O)c1c(O)ccc(O)c1C2=O [Cynodontin, 1,4,5,8-Tetrahydroxy-2-methyl-9,10-anthracenedione]
The inhibition at 10 ppm of the first is higher: 40.6% for the first, 34.4% for the second.

First: CC(=O)N(C)c1ccc(Nc2cc(S(=O)(=O)O)c(N)c3c2C(=O)c2ccccc2C3=O)cc1 [Acid blue 41, 4-[[4-(Acetylmethylamino)phenyl]amino]-1-amino-9,10-dihydro-9,10-dioxo-2-anthracenesulfonic acid, Na salt]
Second: Nc1c(S(=O)(=O)O)cc(Nc2ccc(S(=O)(=O)O)c(Nc3nc(Cl)nc(Cl)n3)c2)c2c1C(=O)c1ccccc1C2=O [reactive blue 4]
The inhibition at 10 ppm of the first is lower: 0% for the first, 7.3% for the second.

First: CC(=O)OC1C=CCC2C(=O)c3cccc(O)c3C(=O)C12 (racemic) [(+,-)-1-Acetoxy-8-hydroxy-1,4,4a,9a-tetrahydroanthraquinone]
Second: O=C1c2ccccc2C(=O)c2c(O)cccc21 [1-Hydroxyanthraquinone]
The inhibition at 10 ppm of the first is lower: 28.1% for the first, 59.3% for the second.

Going from `O=C1c2ccc(O)c(O)c2C(=O)c2c(O)ccc(O)c21` [Quinalizarin, 1,2,5,8-Tetrahydroxyanthraquinone] to `Cc1cc(O)c2c(c1O)C(=O)c1cc(O)cc(O)c1C2=O` [Catenarin, 1,4,5,7-Tetrahydroxy-2-methyl-9,10-anthracenedione], the inhibition at 10 ppm falls from 80% to 37.5%.

Going from `O=C1c2cccc(S(=O)(=O)O)c2C(=O)c2cccc(S(=O)(=O)O)c21` [Anthraquinone-1,5-disulfonic acid di Na salt hydrate] to `Nc1ccc(N)c2c1C(=O)c1ccccc1C2=O` [1,4-Diaminoanthraquinone], the inhibition at 10 ppm rises from 17.5% to 27.5%.

Going from `Cc1ccc(Nc2ccc(Nc3ccc(C)cc3S(=O)(=O)O)c3c2C(=O)c2c(O)ccc(O)c2C3=O)c(S(=O)(=O)O)c1` [Acid green 41, 2,2'-[(9,10-Dihydro-5,8-dihydroxy-9,10-dioxo-1,4-anthracendiyl)diimino]bis[5-methylbenzenesulfonic acid], di Na salt] to `CCCCc1ccc(Nc2ccc(Nc3ccc(CCCC)cc3S(=O)(=O)O)c3c2C(=O)c2ccccc2C3=O)c(S(=O)(=O)O)c1` [Acid green 27, 2,2'-[(9,10-Dihydro-9,10-dioxo-1,4-anthracenediyl)-diimino]bis[5-butylbenzenesulfonic acid]], the inhibition at 10 ppm falls from 17.8% to 16.5%.

Going from `Nc1ccc(O)c2c1C(=O)c1c(O)ccc(N)c1C2=O` [1,5-Diamino-4,8-dihydroxyanthraquinone] to `O=C1c2ccccc2C(=O)c2c(O)ccc(O)c21` [1,4-Dihydroxyanthraquinone], the inhibition at 30 ppm rises from 2.6% to 5.2%.

Going from `N#[N+]c1cccc2c1C(=O)c1ccccc1C2=O` [1-Aminoanthraquinone diazonium salt] to `Cc1ccc2c(c1N)C(=O)c1ccccc1C2=O` [Disperse orange 11, 1-Amino-2-methylanthraquinone], the inhibition at 30 ppm falls from 20.8% to 5.2%.

Compared with `CC(C)Nc1ccc(NC(C)C)c2c1C(=O)c1ccccc1C2=O` [1,4-Di(isopropylamino)anthraquinone, 1,4-Bis[(1-methylethyl)amino]-9,10-anthracenedione], `Cc1ccc(C)c2c1C(=O)c1ccccc1C2=O` [1,4-Dimethylanthraquinone] is higher in inhibition at 30 ppm: 5% for the first, 5.2% for the second.

Compared with `COc1cccc2c1C(=O)c1c(O)c3c(c(O)c1C2=O)C[C@@](O)(C(=O)CO)C[C@@H]3O[C@H]1C[C@H](N)[C@H](O)[C@H](C)O1` [Adriamycin hydrochloride, 10-[(3-Amino-2,3,6-trideoxy-alpha-L-lyxo-hexopyranosyl)oxy]-7,8,9,10-tetrahydro-6,8,11-trihydroxy-8-(hydroxyacetyl)-1-methoxy-5,12-naphthacenedione hydrochloride, reference compound], `O=C1c2ccc(O)c(O)c2C(=O)c2cccc(S(=O)(=O)O)c21` [Alizarin-5-sulfonic acid, 9,10-Dihydro-5,6-dihydroxy-9,10-dioxo-1-anthracenesulfonic acid] is lower in inhibition at 30 ppm: 55.7% for the first, 7.1% for the second.

First: O=C1c2ccccc2C(=O)c2c([N+](=O)[O-])ccc(Nc3ccc([N+](=O)[O-])c4c3C(=O)c3ccccc3C4=O)c21 [1,1'-Iminobis(4-nitro-9,10-anthracenedione)]
Second: Cc1ccc2c(c1-c1c(C)ccc3c1C(=O)c1ccccc1C3=O)C(=O)c1ccccc1C2=O [2,2'-Dimethyl-1,1'-bianthraquinone, 2,2'-Dimethyl-[1,1'-bianthracene]-9,9',10,10'-tetrone]
The inhibition at 30 ppm of the first is lower: 5.7% for the first, 59.7% for the second.

First: Nc1cc2c(cc1O)C(=O)c1ccccc1C2=O [2-Amino-3-hydroxyanthraquinone]
Second: Nc1cc2c(cc1Cl)C(=O)c1ccccc1C2=O [2-Amino-3-chloroanthraquinone]
The inhibition at 30 ppm of the first is higher: 11.4% for the first, 3.9% for the second.

Compared with `Cc1ccc(Nc2ccc(O)c3c2C(=O)c2ccccc2C3=O)c(S(=O)(=O)O)c1` [Solway purple R, 2-[(9,10-Dihydro-4-hydroxy-9,10-dioxo-1-anthracenyl)-amino]-5-methyl-benzenesulfonic acid, Na salt], `COc1cc(NS(=O)(=O)c2ccc(C)cc2)c2c(c1N)C(=O)c1ccccc1C2=O` [N-(4-Amino-9,10-dihydro-3-methoxy-9,10-dioxo-1-anthracenyl)-4-methylbenzenesulfonamide] is lower in inhibition at 30 ppm: 9.1% for the first, 4.3% for the second.

First: Nc1c(S(=O)(=O)O)ccc2c1C(=O)c1ccccc1C2=O [1-Aminoanthraquinone-2-sulfonic acid, 1-Amino-9,10-dihydro-9,10-dioxo-2-anthracenesulfonic acid]
Second: O=C1c2ccccc2C(=O)c2cc(Cl)ccc21 [2-Chloroanthraquinone]
The inhibition at 30 ppm of the first is lower: 37.5% for the first, 98.7% for the second.

Compared with `Cc1cc(O)c2c(c1)C(=O)c1cc(O)cc(O)c1C2=O` [Emodin, 6-Methyl-1,3,8-trihydroxyanthraquinone], `Nc1c(Br)cc(O)c2c1C(=O)c1ccccc1C2=O` [1-Amino-2-bromo-4-hydroxyanthraquinone] is higher in inhibition at 30 ppm: 2.6% for the first, 6.5% for the second.

First: O=C1c2ccccc2C(=O)c2cc(S(=O)(=O)NCc3ccccc3)ccc21 [N-Benzyl-9,10-dihydro-9,10-dioxo-2-anthracenesulfonamide]
Second: O=C(Nc1cccc2c1C(=O)c1cccc(Cl)c1C2=O)c1ccccc1 [1-Benzamido-5-chloroanthraquinone, N-(5-Chloro-9,10-dihydro-9,10-dioxo-1-anthracenyl)-benzamide]
The inhibition at 30 ppm of the first is lower: 3.9% for the first, 10.4% for the second.

`O=C1c2c(O)c(O)c(S(=O)(=O)O)c(O)c2C(=O)c2c(O)c(O)c(S(=O)(=O)O)c(O)c21` [Acid alizarin blue BB, 9,10-Dihydro-1,3,4,5,7,8-hexahydroxy-9,10-dioxo-2,6-anthracenedisulfonic acid] and `O=C(Nc1cccc2c1C(=O)c1cccc(Nc3cccc4c3C(=O)c3cccc(NC(=O)c5ccccc5)c3C4=O)c1C2=O)c1ccccc1` [4,5'-Dibenzamido-1,1'-dianthrimide, N,N'-[Iminobis(9,10-dihydro-9,10-dioxo-5,1-anthracenediyl)]bisbenzamide] are the same in inhibition at 30 ppm: 0% for the first, 0% for the second.

For `CNc1cccc2c1C(=O)c1ccccc1C2=O` [1-(Methylamino)anthraquinone], the inhibition at 10 µg/mL was 19.1%.

Same assay, conditions: Table III, Example 3

In the case of `CC(C)NC(=N)NC(=N)Nc1cccc2c1C(=O)c1ccccc1C2=O` [N-[1-(9,10-dihydro-9,10-dioxo)anthracenyl]-N'-(1-methylethyl)imidodicarbonimidic diamide hydrochloride], the “% inhibition of sulfide formation” value is reported as 83%.

— patent US5385842A, “Anthraquinones as inhibitors of sulfide production from sulfate-reducing bacteria” (E. I. Du Pont de Nemours and Company, priority 1993, dated 1995)
